Results as given in patent US7666254B1, “Borate compositions for wood preservation” (Osmose, Inc., priority 2006, dated 2010).

Test system: Coptotermes acinaciformis
Assay: ensis mean mass loss test: laboratory termite bioassay of treated Pinus radiata specimens, eight weeks
Assay type: in vivo
Conditions: 8 weeks exposure, mean of 6 replicates, SE in parentheses
Excerpt: Pinus radiata D. Don (Radiata pine) specimens (20×20×10 mm long) were cut from the sapwood of several pruned, fast-grown trees that had been harvested from the northern plantation forests of […], Australia. These samples are referred to as “ensis samples.” Trees were 20 to 24 years old. Specimens were pooled and randomly allocated into treatment groups. Prior to treatment, specimens were conditioned to 9.5% moisture content (m.c.). […] The solutions were used immediately. The following impregnation protocol was used: (the “ensis impregnation protocol”). Specimens were treated by drawing a vacuum of -95 kPa for 30 minutes, introducing the preservative solution while under vacuum, and immediately releasing the vacuum. Specimens were allowed to absorb the solution for 30 minutes atmospheric pressure. Each specimen was weighed before and immediately after treatment to determine retention. The specimens closest to the desired retentions were selected. Prior to bioassay against termites, all test specimens from each treatment were artificially weathered to H2 conditions by vacuum oven drying for three days at 40° C. and -95 kPa. After removal from the vacuum ovens, the specimens were cooled in a desiccator before being weighed to obtain initial masses. At each stage, care was taken to ensure that specimens of different treatments were kept separate. The weathering step removed from the specimens any volatiles that may be deleterious to termite health and vigor, as well as to provide artificial ageing. The test specimens were subjected to bioassay in accordance with the minimum requirements specified for H2 conditions in the Australasian Wood Preservation Committee Protocols for Assessment of Wood Preservatives (AWPC 1997), using one species of subterranean termite, Coptotermes acinaciformis. C. acinaciformis is widely distributed throughout mainland Australia and is responsible for greater economic loss that all other species of Australian termites combined (Gay and Calaby 1970). Only fresh, field collected stocks of termites were used for the bioassay. These termites were collected from the Northern Territory, transported by air to the Ensis Clayton laboratory and used promptly. Six replicate test specimens of each treatment were exposed to termites. A further three specimens were designated as vacuum oven controls. The following testing protocol was used (the “[…] loss test”). A single test specimen was centered on a 29 mm plastic disc to stop diffusion of boron out of the specimen. They were centrally placed on a moist matrix of C. acinaciformis finely ground mound material (20g, 100% m.c.) within a 250 ml glass jar (96 mm high, 62 mm diameter). Five grams of C. acinaciformis were added to each jar. A plastic lid, with a central 9 mm diameter ventilator, closed the jar (FIG. 1). The duration of the bioassay was eight weeks. The bioassay was conducted in an insectary maintained at 27° C., 70% RH. […] At the conclusion of the bioassay, test specimens were removed from the jars and cleaned. The test specimens, as well as vacuum oven controls, were then vacuum oven dried under the same conditions that were used to obtain the initial masses (i.e., 3 days at 40° C. and -95 kPa). After cooling and weighing the specimens, the final and initial masses were compared to obtain mass loss. If necessary, the mass loss of specimens exposed to termites was adjusted to accommodate any changes recorded in the vacuum oven controls.

O.O.O.O.O=BOB1OB(OB=O)OB2OB([O-])OB([O-])OB(O1)O2.[Na+].[Na+] [BAE, disodium octaborate tetrahydrate]
Mean mass loss (target retention 0.1% BAE (% m/m in OD wood)): 93.5 (3.9) % | Mean mass loss (target retention 0.2% BAE): 30.9 (5.3) % | Mean mass loss (target retention 0.5% BAE): 48.6 (12.7) %

Cc1c(COC(=O)[C@@H]2[C@H](/C=C(\Cl)C(F)(F)F)C2(C)C)cccc1-c1ccccc1 (racemic) [bifenthrin]
Mean mass loss (target retention 2.5 g/m^3 bifenthrin): 15.6 (2.9) % | Mean mass loss (target retention 5.0 g/m^3 bifenthrin): 4.8 (0.5) % | Mean mass loss (target retention 7.5 g/m^3 bifenthrin): 4.2 (0.4) %
